In ChEMBL document CHEMBL5137054, “Xyloketal B Reverses Nutritional Hepatic Steatosis, Steatohepatitis, and Liver Fibrosis through Activation of the PPARα/PGC1α Signaling Pathway” (J Nat Prod, 2022):
Active and inactive are the calls of the source. The rule behind the calls is not given here.

Assays:
[1] = Toxicity in C57BL/6J mouse assessed as effect on serum AST/ALT ratio at 40 mg/kg, ip; assay type: organism-based; details: in vivo
Mus musculus [2] = assay: Antifibrotic activity against MCD-induced C57BL/6J mouse model of liver fibrosis assessed as reduction in alphaSMA level in liver at 20 to 40 mg/kg, ip administered from week 3 to week 6 by […]; assay type: functional, organism-based; details: dose 20-40 mg/kg, time 4.0 weeks
Mus musculus [3] = assay: Upregulation of peroxisomal acyl-coenzyme A oxidase-2 enzyme expression in liver of HFD-induced C57BL/6J mouse model of NAFL administered intraperitoneally from week 7 to week 12 by immunoblotting analysis; assay type: functional; details: dose 20-40 mg/kg/day, route ip, time 6.0 weeks, DDE = dose-dependent effect
Mus musculus [4] = assay: Antifibrotic activity against MCD-induced C57BL/6J mouse model of liver fibrosis assessed as reduction in MMP2 level in liver administered intraperitoneally from week 3 to week 6 by immunoblotting analysis; assay type: functional, organism-based; details: dose 20-40 mg/kg, route ip, time 4.0 weeks, DDE = dose-dependent effect
Mus musculus [5] = assay: Reduction in hepatic steatosis in HFD-induced C57BL/6J mouse model of NAFL assessed as reduction in serum triglyceride level at 20 to 40 mg/kg/day, ip administered from week 7 to week 12; assay type: functional, organism-based; details: dose 20-40 mg/kg/day, time 6.0 weeks
Mus musculus [6] = assay: Antifibrotic activity against MCD-induced C57BL/6J mouse model of liver fibrosis assessed as reduction in TGFbeta level in liver administered intraperitoneally from week 3 to week 6 by immunoblotting analysis; assay type: functional, organism-based; details: dose 20-40 mg/kg, route ip, time 4.0 weeks, DDE = dose-dependent effect
Mus musculus [7] = assay: Upregulation of cytochrome P450-4A10 enzyme expression in liver of HFD-induced C57BL/6J mouse model of NAFL at 15 mg/kg/day, ip administered from week 7 to week 12 by immunoblotting analysis; assay type: functional, organism-based; details: time 6.0 weeks
Mus musculus [8] = assay: Upregulation of Medium-chain specific acyl-CoA dehydrogenase gene transcriptional level in HFD-induced C57BL/6J mouse model of NAFL at 20 to 40 mg/kg/day, ip administered from week 7 to week 12 by qRT-PCR analysis; assay type: functional, organism-based; details: dose 20-40 mg/kg/day, time 6.0 weeks
Mus musculus [9] = assay: Anti-inflammatory activity against MCD-induced C57BL/6J mouse model of nonalcoholic steatohepatitis assessed as reduction in necroinflammation foci in liver at 20 to 40 mg/kg/day, ip administered from week 3 to week 4 by H&E staining based light microscopic analysis; assay type: functional, organism-based; details: dose 20-40 mg/kg/day, time 2.0 weeks
Mus musculus [10] = assay: Reduction in hepatic steatosis in HFD-induced C57BL/6J mouse model of NAFL assessed as reduction in serum cholesterol level at 20 to 40 mg/kg/day, ip administered from week 7 to week 12; assay type: functional, organism-based; details: dose 20-40 mg/kg/day, time 6.0 weeks
Mus musculus [11] = assay: Upregulation of cytochrome P450-4A10 enzyme expression in liver of HFD-induced C57BL/6J mouse model of NAFL administered intraperitoneally from week 7 to week 12 by immunoblotting analysis; assay type: functional; details: dose 20-40 mg/kg/day, route ip, time 6.0 weeks, DDE = dose-dependent effect
Mus musculus [12] = assay: Upregulation of peroxisomal bifunctional enzyme expression in liver of HFD-induced C57BL/6J mouse model of NAFL at 15 mg/kg/day, ip administered from week 7 to week 12 by immunoblotting analysis; assay type: functional, organism-based; details: time 6.0 weeks
HepG2 = assay: Inhibition of FFA-induced lipid accumulation in human HepG2 cells incubated for 24 hrs by Oil Red O staining based spectrophotometric analysis; assay type: functional, cell-based; details: dose 50-100 µM, DDE = dose-dependent effect
Mus musculus [13] = assay: Anti-inflammatory activity against MCD-induced C57BL/6J mouse model of nonalcoholic steatohepatitis assessed as downregulation of IL1beta expression in liver at 20 to 40 mg/kg/day, ip administered from week 3 to week 4 by immunoblotting analysis; assay type: functional, organism-based; details: dose 20-40 mg/kg/day, time 2.0 weeks
[14] = Toxicity in C57BL/6J mouse assessed as effect on body weight at 40 mg/kg, ip; assay type: organism-based; details: in vivo
Mus musculus [15] = assay: Reduction in hepatic steatosis in HFD-induced C57BL/6J mouse model of NAFL assessed as reduction in serum LDL level at 20 to 40 mg/kg/day, ip administered from week 7 to week 12; assay type: functional, organism-based; details: dose 20-40 mg/kg/day, time 6.0 weeks
Mus musculus [16] = assay: Reduction in hepatic steatosis in HFD-induced C57BL/6J mouse model of NAFL assessed as reduction in serum AST/ALT ratio at 20 to 40 mg/kg/day, ip administered from week 7 to week 12; assay type: functional, organism-based; details: dose 20-40 mg/kg/day, time 6.0 weeks
Mus musculus [17] = assay: Reduction in hepatic steatosis in HFD-induced C57BL/6J mouse model of NAFL assessed as reduction in size of lipid droplets in hepatocytes at 20 to 40 mg/kg/day, ip administered from week 7 to week 12 by H&E staining analysis; assay type: functional, organism-based; details: dose 20-40 mg/kg/day, time 6.0 weeks
Mus musculus [18] = assay: Upregulation of peroxisomal acyl-coenzyme A oxidase-2 enzyme expression in liver of HFD-induced C57BL/6J mouse model of NAFL at 15 mg/kg/day, ip administered from week 7 to week 12 by immunoblotting analysis; assay type: functional, organism-based; details: time 6.0 weeks
Mus musculus [19] = assay: Reduction in hepatic steatosis in HFD-induced C57BL/6J mouse model of NAFL assessed as reduction in HFD-induced body weight gain at 20 to 40 mg/kg/day, ip administered from week 7 to week 12; assay type: functional, organism-based; details: dose 20-40 mg/kg/day, time 6.0 weeks
Mus musculus [20] = assay: Upregulation of peroxisomal bifunctional enzyme gene transcriptional level in HFD-induced C57BL/6J mouse model of NAFL at 20 to 40 mg/kg/day, ip administered from week 7 to week 12 by qRT-PCR analysis; assay type: functional, organism-based; details: dose 20-40 mg/kg/day, time 6.0 weeks
Mus musculus [21] = assay: Upregulation of peroxisomal bifunctional enzyme expression in liver of HFD-induced C57BL/6J mouse model of NAFL administered intraperitoneally from week 7 to week 12 by immunoblotting analysis; assay type: functional; details: dose 20-40 mg/kg/day, route ip, time 6.0 weeks, DDE = dose-dependent effect
Mus musculus [22] = assay: Reduction in hepatic steatosis in HFD-induced C57BL/6J mouse model of NAFL assessed as reduction in number of lipid droplets in hepatocytes at 20 to 40 mg/kg/day, ip administered from week 7 to week 12 by H&E staining analysis; assay type: functional, organism-based; details: dose 20-40 mg/kg/day, time 6.0 weeks
Mus musculus [23] = assay: Upregulation of ACAA1 enzyme expression in liver of HFD-induced C57BL/6J mouse model of NAFL at 15 mg/kg/day, ip administered from week 7 to week 12 by immunoblotting analysis; assay type: functional, organism-based; details: time 6.0 weeks
Mus musculus [24] = assay: Anti-inflammatory activity against MCD-induced C57BL/6J mouse model of nonalcoholic steatohepatitis assessed as downregulation of COX-2 expression in liver at 20 to 40 mg/kg/day, ip administered from week 3 to week 4 by immunoblotting analysis; assay type: functional, organism-based; details: dose 20-40 mg/kg/day, time 2.0 weeks
Mus musculus [25] = assay: Upregulation of Acox1 gene transcriptional level in HFD-induced C57BL/6J mouse model of NAFL at 20 to 40 mg/kg/day, ip administered from week 7 to week 12 by qRT-PCR analysis; assay type: functional, organism-based; details: dose 20-40 mg/kg/day, time 6.0 weeks
Mus musculus [26] = assay: Anti-inflammatory activity against MCD-induced C57BL/6J mouse model of nonalcoholic steatohepatitis assessed as attenuation of ICAM1 expression in liver at 20 to 40 mg/kg/day, ip administered from week 3 to week 4 by immunoblotting analysis; assay type: functional, organism-based; details: dose 20-40 mg/kg/day, time 2.0 weeks
Mus musculus [27] = assay: Anti-inflammatory activity against MCD-induced C57BL/6J mouse model of nonalcoholic steatohepatitis assessed as downregulation of TNFalpha expression in liver at 20 to 40 mg/kg/day, ip administered from week 3 to week 4 by immunoblotting analysis; assay type: functional, organism-based; details: dose 20-40 mg/kg/day, time 2.0 weeks

C[C@H]1CO[C@]2(C)Oc3cc(O)c4c(c3C[C@H]12)O[C@@]1(C)OC[C@H](C)[C@H]1C4
Activity [1]: Non-Toxic
Activity (Mus musculus [2]): Active
Activity (Mus musculus [3]): Dde
Activity (Mus musculus [4]): Dde
Activity (Mus musculus [5]): Active
Activity (Mus musculus [6]): Dde
Activity (Mus musculus [7]): Active
Activity (Mus musculus [8]): Active
Activity (Mus musculus [9]): Active
Activity (Mus musculus [10]): Active
Activity (Mus musculus [11]): Dde
Activity (Mus musculus [12]): Active
inhibition (HepG2): Dde
Activity (Mus musculus [13]): Active
Activity [14]: Non-Toxic
Activity (Mus musculus [15]): Active
Activity (Mus musculus [16]): Active
Activity (Mus musculus [17]): Active
Activity (Mus musculus [18]): Active
Activity (Mus musculus [19]): Active
Activity (Mus musculus [20]): Active
Activity (Mus musculus [21]): Dde
Activity (Mus musculus [22]): Active
Activity (Mus musculus [23]): Active
Activity (Mus musculus [24]): Active
Activity (Mus musculus [25]): Active
Activity (Mus musculus [26]): Active
Activity (Mus musculus [27]): Active
